Experiments:
cortical Aβ plaques = cortical Aβ plaques (Homo sapiens, UniProt P05067); experiment: In vitro autoradiography of AD frontal cortex sections; assay type: binding
Description: Literature precedents indicate the presence of at least three different binding sites, characterized as BS1, BS2 and BS3 on the Aβ fibrils in vitro[24] and extracts from AD homogenates. […] Overall, these investigations indicate that different PET tracers may be beneficial to better understand Aβ pathophysiology in vivo. […] Further, to evaluate ability of [^18F]-9 for labeling Aβ in autopsy confirmed human brain sections, autoradiography and immunohistochemical correlations were also performed.
Scientific Reports Version of August 4, 2016
Autoradiography of Human Brain Sections and Immunohistochemistry Correlation Autoradiography and immunohistochemistry (IHC) were performed as previously described14 with minor modifications. Briefly, a sample of frozen AD frontal cortex was sectioned using a TBS Minotome PLUS Cryostat set at a thickness of 12 microns. The tissue sections were thaw-mounted onto Superfrost Plus (Fisherbrand 12-550-15) microscope slides and allowed to air dry for 10–15 min prior to storage at -80 °C. […]
Autoradiography images were obtained on GE Typhoon System FLA-9500 (Tokyo, Japan) at 25 µm resolution. […] IHC images were obtained on a NanoZoomer 2.0-HT System ([…]) at 20x resolution with DAPI and TRITC fluorescence filters using NDP.scan 2.5 software ([…]). […]

AD homogenates = AD homogenates (Homo sapiens, UniProt P05067); experiment: Saturation binding of [18F]-9 with AD homogenates
Chain of AD homogenates (P05067 672-711 limits assumed): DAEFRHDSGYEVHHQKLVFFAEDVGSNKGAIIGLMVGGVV
Description: For assessing the ability of [^18F]-9 to bind Aβ plaques; binding assays with either AD homogenates or preformed Aβ1–42 aggregates were performed in 30 mM Tris, pH 7.4 buffer supplemented with 0.1% BSA[39]. Nonspecific binding was determined in the presence of 5 (1 μM) as a competitor.
Scientific Reports Version of August 4, 2016 other neurodegenerative diseases (SI, Figure 4A & 4B). Sections were visualized, processed, and analyzed using a Pascal confocal microscope.
Preparation of Human Brain Homogenates.
Well-established literature procedures were used for preparation of AD homogenates. 11,12 Grey matter was isolated from frozen postmortem frontal cortex tissue by dissection with a scalpel. […]
Binding assays were performed using previously described methods.11 Briefly, a fixed concentration (0.25 µM/well) of Aβ1–42 fibrils was incubated for 1 h at 37 °C with increasing concentrations of [18F]-9 (0.1 nM-15 nM) in 30 mM Tris-HCl pH 7.4, 0.1% BSA in a reaction volume of 150 µl. […] The exact hot:cold ([18F]-9 : 5) ratio was measured in each experiment by counting an aliquot of a sample (2 µl) of the radioligand preparation in a scintillation counter. Binding of [18F]-9 to human brain homogenates was assessed by incubating samples of insoluble fraction (1.25 µg insoluble protein/well) from AD subjects, with increasing concentrations of [18F]-9 (0.1nM-18 nM) for 1 h at 37 °C. Nonspecific binding was determined in parallel experiments in the presence of 5 (1 µM) as a competitor. […] Glass fiber filters containing the bound ligand were mixed with Optiphase Supermix scintillation cocktail (150µl; PerkinElmer) and counted immediately.
All data were obtained in triplicate and analyzed by curve fitting to a one-site binding model using nonlinear regression employing Graphpad Prism software (version 4.0) to determine Kd and Bmax values.
Bmax values were calculated in pmol/gram wet weight of brain tissue. […]

Chain of cortical Aβ plaques (P05067 672-711 limits assumed): as above

| SMILES | effect on [18F]-9 binding in autoradiography (cortical Aβ plaques; 1 μM cold ligand with 2 nM [18F]-9) | Bmax (AD homogenates) | binding affinity higher than approved FDA tracers (AD homogenates) | Kd (AD homogenates; 30 mM Tris pH 7.4, 0.1% BSA, one-site model) | labeling in autoradiography (cortical Aβ plaques; 2 nM, 60 min, AD frontal cortex sections (12 μm)) |
| --- | --- | --- | --- | --- | --- |
| CN(C)c1ncc(/C=C\c2nc3cc(OCCF)ccc3[se]2)cn1 [compound 5, (Z)-5-(2-(5-(2-fluoroethoxy)benzo[d][1,3]selenazol-2-yl)vinyl)-N,N-dimethylpyrimidin-2-amine] | binding was inhibited |  |  |  |  |
| CN(C)c1ncc(/C=C\c2nc3cc(OCC[18F])ccc3[se]2)cn1 [[^18F]-9] |  | 546 pmol/g wet wt. | 2–10 fold | 1.7 nM | showed labeling of cortical Aβ plaques |
